Entries after “also recorded” stand apart in the source; their conditions may differ.
Tests used:
[1] = tested on: transgenic mice homozygous for the G196A polymorphism and control wild-type mice; assay: anxiety-related behaviors in conflict/stress tests (open field, elevated plus maze, novelty induced hypophagia) after chronic fluoxetine; format: in vivo; settings: chronic administration
Method: Second, we determined that these mice have increased anxiety-related behaviors as assessed by 3 conflict/stress tests (open field, elevated plus maze, novelty induced hypophagia). These tests for anxiety differ from those used in human studies in that the animals' anxiety-related behaviors are assessed after placement in a stressful environment.

[2] = tested on: BDNF^Met/Met, BDNF^+/− and wild-type mice; assay: open-field test after long-term fluoxetine; format: in vivo; settings: fluoxetine orally 18 mg/kg of body weight per day for 21 days vs vehicle
Method: In the open-field test, percentage of time spent in the center in the absence (H2O) or presence of fluoxetine (drug) treatment was measured. […] All results are presented as means±SEM determined from analysis of eight mice per genotype (*P<0.05, **P<0.01). […] BDNF^Met/Met were treated orally with fluoxetine (18 mg/kg of body weight per day) or vehicle for 21 days before assessment in two tests: open field and novelty-induced hypophagia.

Compound: CNCCC(Oc1ccc(C(F)(F)F)cc1)c1ccccc1 (stereo not drawn) [fluoxetine]
- anxiety-related behaviors ([1]; control wild-type mice): could robustly diminish
- reversal of anxiety-related behaviors ([1]; transgenic mice homozygous for the G196A polymorphism): could not reverse
- entries into the center ([2]; BDNF^Met/Met mice): blunted response
- time spent in the center ([2]; BDNF^Met/Met mice, 18 mg/kg/day): blunted response; also recorded: Decreased response
- entries into the center ([2]; wild-type mice): increase in entries into the center
- time spent in the center ([2]; wild-type mice): significant increase

Reference: US20100240763A1, “Method to Determine and Biomarker for Treatment Efficacy With Ssri, Snri, and Sari Antidepressants” (priority 2006, published 2010)
